Assay results published in patent US7932290B2, “Method for the treatment of metabolic disorders” (Wellstat Biologics Corporation, priority 2003, dated 2011).

Legend:
Assay in all cases: Transcription activation potential, GAL4 luciferase reporter in C3A cells
Type in all cases: cell-based
[1] = target: T1, Human PPARα LBD fusion protein (Homo sapiens, UniProt Q07869)
T1 construct: a.a; 167-468)
T1 sequence (Q07869 167-468): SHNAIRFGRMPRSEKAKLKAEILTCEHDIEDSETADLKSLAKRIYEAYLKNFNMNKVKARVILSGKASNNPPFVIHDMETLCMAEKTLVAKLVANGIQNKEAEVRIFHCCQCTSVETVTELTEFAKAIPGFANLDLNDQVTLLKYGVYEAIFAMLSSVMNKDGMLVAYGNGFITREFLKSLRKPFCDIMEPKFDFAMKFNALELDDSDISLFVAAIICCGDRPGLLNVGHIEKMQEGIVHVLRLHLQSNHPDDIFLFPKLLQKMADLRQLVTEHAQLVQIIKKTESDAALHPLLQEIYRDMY
Procedure: (§1) Cells were seeded in 24 well plates the day prior to transfection at 5×10^4−2×10^5 cells/well, depending upon cell type. Cells were transfected using Lipofectamine 2000 reagent from Invitrogen. A total of 0.8 μg DNA/well was added to 50 μL of Optimem Reduced Serum media (serum free; Gibco). Lipofectamine 2000 was added (2.5 μL/well) to another tube containing 50 μL of Optimem media. Plasmid DNA was added at a ratio of 4:3 (reporter:activator); where appropriate, salmon sperm DNA was substituted for activator expressing plasmid. The reporter plasmid used was pFR-Luc, which has the firefly luciferase gene under the control of a GAL4 UAS ([…]) containing promoter. The activator expressing plasmids contain yeast GAL4 DNA binding domain (dbd) fusion of either human PPARα ligand binding domain (LBD; a.a. 167-468) or human PPARγ LBD (a.a. 176-479). DNA constructs containing the mouse PPARα or PPARγ LBD fused to the GAL4 DNA binding domain were also used. The two solutions were incubated at room temperature for 5 min, and then combined. The combined solution was incubated at room temperature for approximately 30 min. Cells were washed once with PBS, and 100 μL of transfection mix added to each well. Plates were incubated at 37° C. in a 5% CO2 incubator for 4.5 hr, followed by aspiration of the transfection mix, with plates refed using EMEM complete media (supplemented with 10% FBS, 1× Glutamine). 24 hr post-transfection, plates were treated with the appropriate compounds in EMEM complete media, followed by washing once with PBS and addition of 100 μL 1× reporter lysis buffer/well (Promega) 24 hr after treatment. Plates went through one freeze/thaw cycle prior to analysis. Approximately 10 μL of lysate was added to 100 μL of firefly luciferase substrate, mixed by pipetting, and analyzed on a luminometer for 10 s using the integration function (relative luciferase units/RLU) or on a Microbeta Trilux (luciferase counts per second/LCPS). Each treatment was performed in triplicate, and in multiple, separate experiments.

[2] = target: T2, Mouse PPARα LBD fusion protein (Mus musculus, UniProt P23204)
T2 sequence (P23204 239-466): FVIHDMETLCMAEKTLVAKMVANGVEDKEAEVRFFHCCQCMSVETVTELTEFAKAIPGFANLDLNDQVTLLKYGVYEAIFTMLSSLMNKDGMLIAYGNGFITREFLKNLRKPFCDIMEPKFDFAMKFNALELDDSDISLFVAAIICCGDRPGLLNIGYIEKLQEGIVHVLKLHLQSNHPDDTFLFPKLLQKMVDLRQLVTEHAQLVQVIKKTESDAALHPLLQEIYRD
Procedure: as §1

[3] = tested on: Human PPARγ LBD fusion protein
Procedure: (§2) Cells were seeded in 24 well plates the day prior to transfection at 5×10^4−2×10^5 cells/well, depending upon cell type. Cells were transfected using Lipofectamine 2000 reagent from Invitrogen. A total of 0.8 μg DNA/well was added to 50 μL of Optimem Reduced Serum media (serum free; Gibco). Lipofectamine 2000 was added (2.5 μL/well) to another tube containing 50 μL of Optimem media. Plasmid DNA was added at a ratio of 4:3 (reporter:activator); where appropriate, salmon sperm DNA was substituted for activator expressing plasmid. […] DNA constructs containing the mouse PPARα or PPARγ LBD fused to the GAL4 DNA binding domain were also used. The two solutions were incubated at room temperature for 5 min, and then combined. The combined solution was incubated at room temperature for approximately 30 min. Cells were washed once with PBS, and 100 μL of transfection mix added to each well. Plates were incubated at 37° C. in a 5% CO2 incubator for 4.5 hr, followed by aspiration of the transfection mix, with plates refed using EMEM complete media (supplemented with 10% FBS, 1× Glutamine). 24 hr post-transfection, plates were treated with the appropriate compounds in EMEM complete media, followed by washing once with PBS and addition of 100 μL 1× reporter lysis buffer/well (Promega) 24 hr after treatment. Plates went through one freeze/thaw cycle prior to analysis. Approximately 10 μL of lysate was added to 100 μL of firefly luciferase substrate, mixed by pipetting, and analyzed on a luminometer for 10 s using the integration function (relative luciferase units/RLU) or on a Microbeta Trilux (luciferase counts per second/LCPS). Each treatment was performed in triplicate, and in multiple, separate experiments.

[4] = target: T3, Mouse PPARγ LBD fusion protein (Mus musculus, UniProt P37238)
T3 sequence (P37238 238-503): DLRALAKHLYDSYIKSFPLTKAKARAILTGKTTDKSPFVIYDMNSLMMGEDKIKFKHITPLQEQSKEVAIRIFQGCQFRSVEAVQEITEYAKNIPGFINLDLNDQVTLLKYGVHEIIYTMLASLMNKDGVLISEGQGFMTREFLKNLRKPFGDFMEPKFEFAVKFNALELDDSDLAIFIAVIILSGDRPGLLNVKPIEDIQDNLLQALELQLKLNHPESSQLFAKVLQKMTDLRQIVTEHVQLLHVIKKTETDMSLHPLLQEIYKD
Procedure: as §2

[5] = 100 μM test compound, Table 20b
[6] = 200 μM test compound, Table 20b

| Structure (SMILES) | transcription activation potential (luciferase) ± standard deviation ([1]; 1 μM) [LCPS] | transcription activation potential (luciferase) ± standard deviation ([1]; 3 μM) [LCPS] | transcription activation potential (luciferase) ± standard deviation ([1]; 10 μM) [LCPS] | transcription activation potential (luciferase) ± standard deviation ([1]; 30 μM) [LCPS] | transcription activation potential (luciferase) ± standard deviation ([1]; 100 μM) [LCPS] | transcription activation potential (luciferase) ± standard deviation ([1]; 200 μM) [LCPS] | transcription activation potential (luciferase) ± standard deviation ([2]; 1 μM, Table 20a) [LCPS] | transcription activation potential (luciferase) ± standard deviation ([2]; 3 μM, Table 20a) [LCPS] | transcription activation potential (luciferase) ± standard deviation ([2]; 10 μM, Table 20a) [LCPS] | transcription activation potential (luciferase) ± standard deviation ([2]; 30 μM, Table 20a) [LCPS] | transcription activation potential (luciferase) ± standard deviation ([2]; 100 μM, Table 20a) [LCPS] | transcription activation potential (luciferase) ± standard deviation ([2]; 100 μM, Table 21a) [RLU] | transcription activation potential (luciferase) ± standard deviation ([2]; 200 μM, Table 20a) [LCPS] | transcription activation potential (luciferase) ± standard deviation ([3]; 1 μM test compound) [LCPS] | transcription activation potential (luciferase) ± standard deviation ([3]; 3 μM test compound) [LCPS] | transcription activation potential (luciferase) ± standard deviation ([3]; 10 μM test compound) [LCPS] | transcription activation potential (luciferase) ± standard deviation ([3]; 30 μM test compound) [LCPS] | transcription activation potential (luciferase) ± standard deviation ([3]; 100 μM test compound) [LCPS] | transcription activation potential (luciferase) ± standard deviation ([3]; 200 μM test compound) [LCPS] | transcription activation potential (luciferase) ± standard deviation ([4]; 1 μM test compound, Table 20b) [LCPS] | other results |
| --- | --- | --- | --- | --- | --- | --- | --- | --- | --- | --- | --- | --- | --- | --- | --- | --- | --- | --- | --- | --- | --- |
| Cc1cccc(C)c1COc1cccc(C(=O)O)c1 [Compound CG, 3-(2,6-Dimethylbenzyloxy)benzoic acid] | 10.9 ± 11.6 | 19.1 ± 6.1 | 17.9 ± 5.2 | 38.2 ± 21.1 | 23.9 ± 5.3 | 159.4 ± 29.6 | 4.43 ± 2.25 | 9.17 ± 3.72 | 7.87 ± 0.7 | 11.63 ± 5.01 | 11.8 ± 8.95 | 926 ± 1362 | 80.3 ± 2 | 47.9 ± 7.2 | 73.6 ± 39.1 | 72.5 ± 28.2 | 205.6 ± 37.1 | 403.6 ± 86.1 | 598.1 ± 190.4 | 8.47 ± 5.01 | transcription activation potential (luciferase) ± standard deviation ([2]; 1 μM, Table 21a): 361 ± 398 RLU; transcription activation potential (luciferase) ± standard deviation ([2]; 3 μM, Table 21a): 706 ± 399 RLU; transcription activation potential (luciferase) ± standard deviation ([2]; 5 μM, Table 21a): 492 ± 160 RLU; transcription activation potential (luciferase) ± standard deviation ([2]; 7 μM, Table 21a): 652 ± 190 RLU; transcription activation potential (luciferase) ± standard deviation ([2]; 10 μM, Table 21a): 394 ± 84 RLU; transcription activation potential (luciferase) ± standard deviation ([2]; 30 μM, Table 21a): 651 ± 643 RLU; transcription activation potential (luciferase) ± standard deviation ([4]; 1 μM, Table 21b): 634 ± 195 RLU; transcription activation potential (luciferase) ± standard deviation ([4]; 3 μM test compound, Table 20b): 14.8 ± 4.3 LCPS; transcription activation potential (luciferase) ± standard deviation ([4]; 10 μM test compound, Table 20b): 20.87 ± 4.1 LCPS; transcription activation potential (luciferase) ± standard deviation ([4]; 10 μM, Table 21b): 405 ± 318 RLU; transcription activation potential (luciferase) ± standard deviation ([4]; 30 μM test compound, Table 20b): 55.4 ± 30.6 LCPS; transcription activation potential (luciferase) ± standard deviation ([4]; 30 μM, Table 21b): 1562 ± 354 RLU; transcription activation potential (luciferase) ± standard deviation [4, 5]: 78.8 ± 23.1 LCPS; transcription activation potential (luciferase) ± standard deviation ([4]; 100 μM, Table 21b): 2555 ± 1609 RLU; transcription activation potential (luciferase) ± standard deviation [4, 6]: 101.2 ± 59.1 LCPS |
| Cc1cccc(C)c1COc1cccc(C(=O)CCC(=O)O)c1 [Compound BI, 4-(3-(2,6-Dimethylbenzyloxy)phenyl)-4-oxobutyric acid] | 127.7 ± 7.1 | 128 ± 70.7 | 52.7 ± 8.2 | 55.4 ± 16.2 | 20.9 ± 13.1 | 31.1 ± 29.4 | 14.67 ± 1.08 | 15.2 ± 2.78 | 15.1 ± 3.78 | 10.43 ± 1.81 | 15.37 ± 6.21 | 4421 ± 118 | 18.6 ± 11.66 | 43.3 ± 11.6 | 26 ± 4.5 | 40.1 ± 13.5 | 22.9 ± 10.3 | 34.6 ± 15.6 | 227.3 ± 25.8 | 2.4 ± 2.26 | transcription activation potential (luciferase) ± standard deviation ([4]; 1 μM, Table 21b): 746 ± 362 RLU; transcription activation potential (luciferase) ± standard deviation ([4]; 3 μM test compound, Table 20b): 2.6 ± 1.41 LCPS; transcription activation potential (luciferase) ± standard deviation ([4]; 3 μM, Table 21b): 174 ± 153 RLU; transcription activation potential (luciferase) ± standard deviation ([4]; 5 μM, Table 21b): 996 ± 855 RLU; transcription activation potential (luciferase) ± standard deviation ([4]; 7 μM, Table 21b): 220 ± 137 RLU; transcription activation potential (luciferase) ± standard deviation ([4]; 10 μM test compound, Table 20b): 2.2 ± 1.57 LCPS; transcription activation potential (luciferase) ± standard deviation ([4]; 10 μM, Table 21b): 479 ± 353 RLU; transcription activation potential (luciferase) ± standard deviation ([4]; 30 μM test compound, Table 20b): 4.9 ± 4.42 LCPS; transcription activation potential (luciferase) ± standard deviation ([4]; 30 μM, Table 21b): 557 ± 639 RLU; transcription activation potential (luciferase) ± standard deviation [4, 5]: 2.63 ± 1.96 LCPS; transcription activation potential (luciferase) ± standard deviation ([4]; 100 μM, Table 21b): 3330 ± 1848 RLU; transcription activation potential (luciferase) ± standard deviation [4, 6]: 65.77 ± 10.55 LCPS |
